“Also recorded” adds a separate entry of the source.
Test system: tumorspheres of SUM159 cells
Experiment: gene expression in sequentially passaged tumorspheres treated with chemotherapeutic agents
Format: cell-based, human
Conditions: paclitaxel-treated SUM159 tumorspheres; 11 CSC-associated genes; percentage change normalized to primary SUM159 tumorspheres (FIG. 14)

CC(=O)O[C@H]1C(=O)[C@@]2(C)[C@H]([C@H](OC(=O)c3ccccc3)[C@]3(O)C[C@H](OC(=O)[C@H](O)[C@@H](NC(=O)c4ccccc4)c4ccccc4)C(C)=C1C3(C)C)[C@]1(OC(C)=O)CO[C@@H]1C[C@@H]2O [paclitaxel]
expression of upregulated cancer stem cell associated genes: enhancement of the upregulation; also recorded: enhanced further

From patent US20150030615A1, “BIOMARKERS FOR CANCER STEM CELLS AND RELATED METHODS OF USE” (VERASTEM, INC., priority 2012, published 2015)
